Measurements as given in publication PMC6218659, “Structures of DPAGT1 Explain Glycosylation Disease Mechanisms and Advance TB Antibiotic Design” (Cell, 2018).
≈ marks a conversion by molar mass, not a printed value. Like-named read-outs stand apart in the source and are kept apart here.

Legend:
B. subtilis EC1524 = assay: Micro-broth dilution and drop plate antimicrobial susceptibility test; type: cell-based, Bacillus subtilis
Procedure: (§1) In a sterile 96-well plate, serial dilutions were made with the test substance to final volume of 50 μl. Inoculum was then prepared in Mueller-Hinton broth to 0.5 McFarland and diluted before adding 50 μl to the well to make ∼1x10^5 CFU/ml. The culture plate was incubated at 35 °C for 20-24 hrs. A positive growth control and sterility wells were also prepared along with the culture wells. Absorbance at OD600 was taken using BMG Labtech SPECTROstar Omega spectrophotometer. MIC is determined by the lowest concentration without growth. IC50 is determined from plotting a dose-response curve, see Data Analysis below. To determine the MBC, using a multi-channel pipette, 1 μl of culture broth was taken from the same 96-well microdilution growth plate and carefully inoculated on surface of MH agar plate. The plate is then incubated for additional 20 hrs. at 35 °C. The MBC value is the lowest concentration without observed growth on the agar.

B. cereus ATCC11778 = assay: as above; type: cell-based, Bacillus cereus
Procedure: as §1

E. coli ATCC25922 = assay: as above; type: cell-based; conditions: Escherichia coli
Procedure: as §1

P. aeruginosa ATCC27853 = assay: as above; type: cell-based; conditions: Pseudomonas aeruginosa
Procedure: as §1

S. aureus ATCC29219 = assay: as above; type: cell-based; conditions: Staphylococcus aureus
Procedure: as §1

Mtb H37Rv ATCC27294 = assay: Minimum inhibitory concentrations testing against Mtb; type: cell-based, Mycobacterium tuberculosis; conditions: for MIC: Mycobacterium tuberculosis, 168 h
HEK293 cells = assay: Cell proliferation assay (MTS); type: cell-based, human
Procedure: (§2) In sterile 96-well plate, each well was seeded with ∼1x10^5 cells. The cells are then grown confluent overnight in 100 μl DMEM with 10% FBS. The medium is replenished with DMEM with 2% FBS and added vehicle control or test substance the next day. For test substance in methanol, stock was added to 25 μl of DMEM with 2% FBS or PBS and placed in the laminar flow hood to let the methanol evaporate (about 1-3 hrs). Once the methanol has evaporated, DMEM with 2% FBS was added to final volume of 100 μl of desired test concentration. […] Cells are grown for additional 24 hrs. The cell viability was determined by using Promega CellTiter 96^© AQueous One Solution Cell Proliferation Assay (3-(4,5-dimethylthiazol-2-yl)-5-(3-carboxymethoxyphenyl)-2-(4-sulfophenyl)-2H-tetrazolium, inner salt; MTS) System following the manufacture protocol.

HepG2 cells = assay: Cell proliferation assay (MTS); type: cell-based, human
Procedure: as §2

Raji cells = assay: Cell proliferation assay (MTS); type: cell-based, human; conditions: 24 hrs
Procedure: as §2

[1] = tested on: Mtb-infected J774A.1 macrophages; assay: Efficacy against Mtb growing in infected macrophages; conditions: J774A.1 macrophages treated 3 or 7 days
[2] = minimal lethal dose / MIC, 800 μg mL-1 used for >400
[3] = MTS cell proliferation assay, 24 hrs, highest concentration 400 µg mL-1
[4] = serial 2-fold dilutions (Table S6)

## CCCCCCCCCC(=O)N[C@H]1[C@H](O[C@H]2O[C@H](CO)[C@@H](O)[C@H](O)[C@H]2NC(=O)CCCCCCCCC)O[C@H](C[C@@H](O)[C@H]2O[C@@H](n3ccc(=O)[nH]c3=O)[C@H](O)[C@@H]2O)[C@H](O)[C@@H]1O [TUN-10,10, Di-N-decanoyl-tunicamycin]
B. subtilis EC1524; Bacillus subtilis, EC1524
  IC50: 0.12 ± 0.04 µg/mL (≈ 0.137 µM)
  MBC: > 0.39 µg/mL
  MIC: 0.33 ± 0.11 µg/mL (≈ 0.377 µM)
B. subtilis EC1524; Bacillus subtilis, EC1524, read-out: Minimal Inhibitory Concentration, B. subtilis EC1524
  MIC: 0.39 µg/mL (≈ 0.446 µM)
B. subtilis EC1524; [2]
  Relative Therapeutic Index (RTI), B. subtilis EC1524: 2050
B. cereus ATCC11778; B. cereus, micro-broth dilution, mean ± SEM (n=3)
  MIC: 0.33 ± 0.11 µg/mL (≈ 0.377 µM)
B. cereus ATCC11778; Bacillus cereus, ATCC11778
  IC50: 0.046 µg/mL (≈ 0.0526 µM)
  MBC: 12.5 µg/mL (≈ 14.3 µM)
  MIC: 0.33 ± 0.11 µg/mL (≈ 0.377 µM)
B. cereus ATCC11778; Bacillus cereus, ATCC 11778 / NRRL11778, read-out: Minimal Inhibitory Concentration, B. cereus NRRL 11778
  MIC: 0.39 µg/mL (≈ 0.446 µM)
B. cereus ATCC11778; [2]
  Relative Therapeutic Index (RTI), B. cereus NRRL 11778: 2050
E. coli ATCC25922
  IC50: 91.6 µg/mL (≈ 105 µM)
  MBC: 400 µg/mL (≈ 457 µM)
  MIC: 330 ± 120 µg/mL (≈ 377 µM)
P. aeruginosa ATCC27853
  IC50: 53.5 µg/mL (≈ 61.1 µM)
  MBC: 400 µg/mL (≈ 457 µM)
  MIC: 83 ± 29 µg/mL (≈ 94.9 µM)
S. aureus ATCC29219
  IC50: 49.3 µg/mL (≈ 56.3 µM)
  MBC: 400 µg/mL (≈ 457 µM)
  MIC: 83 ± 29 µg/mL (≈ 94.9 µM)
Mtb H37Rv ATCC27294; read-out: 1-week MIC in 7H9/ADC/Tw
  MIC: 1.2 ± 0.3 µg/mL (≈ 1.37 µM)
Mtb H37Rv ATCC27294; read-out: 1-week MIC in GAST/Fe
  MIC: 0.1 ± 0.1 µg/mL (≈ 0.114 µM)
Mtb H37Rv ATCC27294; read-out: Minimal Inhibitory Concentration, Mtb H37RV a
  MIC: 1.2 µg/mL (≈ 1.37 µM)
Mtb H37Rv ATCC27294; read-out: Minimal Inhibitory Concentration, Mtb H37RV b
  MIC: 0.1 µg/mL (≈ 0.114 µM)
Mtb H37Rv ATCC27294; minimal lethal dose / MIC, 7H9/ADC/Tw, 800 μg mL-1 used for >400
  Relative Therapeutic Index (RTI), Mtb H37RV a: 667
Mtb H37Rv ATCC27294; minimal lethal dose / MIC, GAST/Fe, 800 μg mL-1 used for >400
  Relative Therapeutic Index (RTI), Mtb H37RV b: 8000
HEK293 cells; [3]
  LD50 values, HEK293: N/A (N/A = not available. No or low cytotoxicity observed at highest, saturating concentration tested (400 µg mL-1))
HEK293 cells; [4]
  Minimal Lethal Dose, HEK 293: > 400 µg/mL
HepG2 cells; [3]
  LD50 values, HepG2: N/A (N/A = not available. No or low cytotoxicity observed at highest, saturating concentration tested (400 µg mL-1))
HepG2 cells; [4]
  Minimal Lethal Dose, HepG2: > 400 µg/mL
Raji cells
  LD50 values, Raji: 196.17 ± 47.61 µg/mL
[1]; 1 × MIC
  reduction of intracellular bacterial burdens: 1 logs
[1]; 10 × MIC
  reduction of intracellular bacterial burdens: 2 logs
